{"source": "ChEMBL document CHEMBL5505979", "about": "“Novel aminothiazoximone-corbelled ethoxycarbonylpyrimidones with antibiofilm activity to conquer Gram-negative bacteria through potential multitargeting effects” (Eur J Med Chem, 2024)", "key": {"Acinetobacter baumannii [1]": {"tested_on": "Acinetobacter baumannii", "experiment": "Anti-bacterial activity against Acinetobacter baumannii assessed as growth inhibition by measuring optical density measured at 2 time of MIC in presence of 1/2 times of MIC of norfloxacin by Checkerboard assay (reference value: 0.155)", "type": "functional"}, "Escherichia coli [2]": {"tested_on": "Escherichia coli", "experiment": "Anti-bacterial activity against Escherichia coli ATCC 25922 assessed as growth inhibition by measuring optical density measured at 1/2 time of MIC in presence of 1 times of MIC of norfloxacin by Checkerboard assay (reference value: 0.124)", "type": "functional"}, "Acinetobacter baumannii [3]": {"tested_on": "Acinetobacter baumannii", "experiment": "Antibiofilm activity against Acinetobacter baumannii assessed as clearance rate of mature biofilm at 8 times of MIC concentration relative to control", "type": "functional"}, "Cell membrane [4]": {"tested_on": "Cell membrane", "experiment": "Induction of physical destruction of cell membrane in Acinetobacter baumannii assessed as leakage of nucleic acid by measuring absorbance of 260 nm at 1/4 to 8 times of MIC concentration", "type": "cell membranes"}, "Escherichia coli [5]": {"tested_on": "Escherichia coli", "experiment": "Anti-bacterial activity against Escherichia coli ATCC 25922 assessed as inhibition of bacterial growth", "type": "functional"}, "Acinetobacter baumannii [6]": {"tested_on": "Acinetobacter baumannii", "experiment": "Anti-bacterial activity against Acinetobacter baumannii assessed as growth inhibition by measuring optical density measured at 1/4 time of MIC in presence of 1/8 times of MIC of norfloxacin by Checkerboard assay (reference value: 0.152)", "type": "functional"}, "Acinetobacter baumannii [7]": {"tested_on": "Acinetobacter baumannii", "experiment": "Induction of intracellular ROS accumulation in Acinetobacter baumannii assessed as fluorescence intensity at 1/4 to 2 times of MIC by DCFH-DA staining based assay", "type": "functional, organism-based"}, "Escherichia coli [8]": {"tested_on": "Escherichia coli", "experiment": "Anti-bacterial activity against Escherichia coli ATCC 25922 assessed as growth inhibition by measuring optical density measured at 2 time of MIC in presence of 2 times of MIC of norfloxacin by Checkerboard assay (reference value: 0.128)", "type": "functional"}, "Escherichia coli [9]": {"tested_on": "Escherichia coli", "experiment": "Reduction in metabolic activity of Escherichia coli ATCC 25922 assessed as biomass of the fluorescent pink change to non-fluorescent blue", "type": "functional, organism-based"}, "Staphylococcus aureus [10]": {"tested_on": "Staphylococcus aureus", "experiment": "Anti-bacterial activity against Staphylococcus aureus ATCC 29213 assessed as inhibition of bacterial growth", "type": "functional", "settings": "Staphylococcus aureus, ATCC 29213; read-out: MIC"}, "Staphylococcus aureus [11]": {"tested_on": "Staphylococcus aureus", "experiment": "Anti-bacterial activity against Staphylococcus aureus ATCC 25923 assessed as inhibition of bacterial growth", "type": "functional", "settings": "Staphylococcus aureus, ATCC 25923; read-out: MIC"}, "Staphylococcus aureus [12]": {"tested_on": "Staphylococcus aureus", "experiment": "Anti-bacterial activity against methicillin-resistant Staphylococcus aureus ATCC 43300 assessed as inhibition of bacterial growth", "type": "functional", "settings": "Staphylococcus aureus, ATCC 43300; read-out: MIC"}, "Acinetobacter baumannii [13]": {"tested_on": "Acinetobacter baumannii", "experiment": "Induction of membrane disturbance in Acinetobacter baumannii assessed as increase in fluorescence intensity at 0.5 to 8 times of MIC concentration measured after 90 mins by Propidium iodide assay", "type": "functional, organism-based"}, "Escherichia coli [14]": {"tested_on": "Escherichia coli", "experiment": "Reduction in metabolic activity of Escherichia coli ATCC 25922 assessed as decrease in fluorescence intensity at 1/4 to 8 times of MIC measured after 6 hrs by resazurin sodium salt assay", "type": "functional, organism-based"}, "Escherichia coli [15]": {"tested_on": "Escherichia coli", "experiment": "Anti-bacterial activity against Escherichia coli ATCC 25922 assessed as growth inhibition by measuring optical density measured at 1/2 time of MIC in presence of 1/8 times of MIC of norfloxacin by Checkerboard assay (reference value: 0.124)", "type": "functional"}, "Acinetobacter baumannii [16]": {"tested_on": "Acinetobacter baumannii", "experiment": "Anti-bacterial activity against Acinetobacter baumannii assessed as growth inhibition by measuring optical density measured at 1 time of MIC in presence of 1/8 times of MIC of norfloxacin by Checkerboard assay (reference value: 0.157)", "type": "functional"}, "Candida parapsilosis": {"tested_on": "Candida parapsilosis", "experiment": "Anti-fungal activity against Candida parapsilosis assessed as inhibition of fungal growth", "type": "functional", "settings": "Lodderomyces parapsilosis; read-out: MIC"}, "Escherichia coli [17]": {"tested_on": "Escherichia coli", "experiment": "Antibiofilm activity against Escherichia coli ATCC 25922 assessed as reduction of self-aggregation", "type": "functional, organism-based"}, "Acinetobacter baumannii [18]": {"tested_on": "Acinetobacter baumannii", "experiment": "Reduction of biofilm virulent factors in Acinetobacter baumannii assessed as decrease in extracellular polymeric substances (EPS) by measuring optical density at 490 nm at 2 times of MIC concentration by congo red binding assay (reference value: 0.188 to 0.192)", "type": "functional"}, "Escherichia coli [19]": {"tested_on": "Escherichia coli", "experiment": "Bactericidal activity against Escherichia coli ATCC 25922 assessed as bacterial killing at 1 to 8 times of MIC concentration measured upto 8 hrs by time-kill kinetics assay", "type": "functional, organism-based"}, "Acinetobacter baumannii [20]": {"tested_on": "Acinetobacter baumannii", "experiment": "Anti-bacterial activity against Acinetobacter baumannii assessed as fractional inhibitory concentration measured upto 9 hrs in presence of norfloxacin", "type": "functional"}, "Acinetobacter baumannii [21]": {"tested_on": "Acinetobacter baumannii", "experiment": "Anti-bacterial activity against Acinetobacter baumannii assessed as growth inhibition by measuring optical density measured at 4 time of MIC in presence of 2 times of MIC of norfloxacin by Checkerboard assay (reference value: 0.152)", "type": "functional"}, "Pseudomonas aeruginosa [22]": {"tested_on": "Pseudomonas aeruginosa", "experiment": "Anti-bacterial activity against Pseudomonas aeruginosa ATCC 9027 assessed as inhibition of bacterial growth", "type": "functional"}, "Escherichia coli [23]": {"tested_on": "Escherichia coli", "experiment": "Antibiofilm activity against Escherichia coli ATCC 25922 assessed as inhibition rate of bio-film formation at 8 times of MIC concentration in presence of sodium dodecyl sulfate by Crystal violet assay relative to control", "type": "functional, organism-based"}, "Escherichia coli [24]": {"tested_on": "Escherichia coli", "experiment": "Reduction in metabolic activity of Escherichia coli ATCC 25922 assessed as decrease in bacterial lactate dehydrogenase activity at 0.5 to 8 times of MIC concentration", "type": "functional, organism-based"}, "[25]": {"experiment": "Cytotoxicity against human L02 cells assessed as cell viability at effective concentration measured after 24 hrs", "type": "toxicity, cell-based", "settings": "read-out: Activity"}, "Escherichia coli [26]": {"tested_on": "Escherichia coli", "experiment": "Induction of membrane depolarization Escherichia coli ATCC 25922 assessed as increase in red fluorescence intensity at 0.5 to 8 times of MIC concentration measured after 6 hrs by […] assay", "type": "functional, organism-based"}, "Cell membrane [27]": {"tested_on": "Cell membrane", "experiment": "Induction of physical destruction of cell membrane in Escherichia coli ATCC 25922 assessed as leakage of nucleic acid by measuring absorbance of 260 nm at 1/4 to 8 times of MIC concentration", "type": "cell membranes"}, "Calf thymus DNA": {"tested_on": "Calf thymus DNA", "experiment": "Binding affinity to calf thymus DNA assessed as decrease in fluorescence intensity at 530 nm by Acridine Orange based fluorescence spectroscopy", "type": "nucleic-acid assay", "settings": "Bos taurus"}, "Candida tropicalis": {"tested_on": "Candida tropicalis", "experiment": "Anti-fungal activity against Candida tropicalis assessed as inhibition of fungal growth", "type": "functional", "settings": "Candida tropicalis; read-out: MIC"}, "Escherichia coli [28]": {"tested_on": "Escherichia coli", "experiment": "Antibiofilm activity against Escherichia coli ATCC 25922 assessed as inhibition rate of bio-film formation at 8 times of MIC concentration by Crystal violet assay relative to control", "type": "functional"}, "Pseudomonas aeruginosa [29]": {"tested_on": "Pseudomonas aeruginosa", "experiment": "Anti-bacterial activity against Pseudomonas aeruginosa ATCC 27853 assessed as inhibition of bacterial growth", "type": "functional", "settings": "Pseudomonas aeruginosa, ATCC 27853; read-out: MIC"}, "Acinetobacter baumannii [30]": {"tested_on": "Acinetobacter baumannii", "experiment": "Bactericidal activity against Acinetobacter baumannii assessed as bacterial killing at 1 to 8 times of MIC concentration measured upto 8 hrs by time-kill kinetics assay", "type": "functional, organism-based"}, "Escherichia coli [31]": {"tested_on": "Escherichia coli", "experiment": "Induction of intracellular ROS accumulation in Escherichia coli ATCC 25922 assessed as fluorescence intensity at 1/4 to 2 times of MIC by DCFH-DA staining based assay", "type": "functional, organism-based"}, "Escherichia coli [32]": {"tested_on": "Escherichia coli", "experiment": "Anti-bacterial activity against Escherichia coli ATCC 25922 assessed as growth inhibition by measuring optical density measured at 1 time of MIC in presence of 1/4 times of MIC of norfloxacin by Checkerboard assay (reference value: 0.125)", "type": "functional"}}, "note": "The source made the active and inactive calls. The rule behind the calls is not given here.", "data": [{"smiles": "CCCCc1nc(Cl)c(C2NC(=O)NC(CN3CCN(C(=O)/C(=N/OC)c4csc(N)n4)CC3)=C2C(=O)OCC)[nH]1", "note": "(stereo not given)", "values": [{"measurement": "OD", "setting": "Acinetobacter baumannii [1]", "result": 0.05}, {"measurement": "OD", "setting": "Escherichia coli [2]", "result": 0.082}, {"measurement": "Activity", "setting": "Acinetobacter baumannii [3]", "result": 42.6, "unit": "%"}, {"measurement": "Activity", "setting": "Cell membrane [4]", "result": "Active"}, {"measurement": "MIC", "setting": "Escherichia coli [5]", "result": 7, "unit": "µM"}, {"measurement": "OD", "setting": "Acinetobacter baumannii [6]", "result": 0.127}, {"measurement": "Activity", "setting": "Acinetobacter baumannii [7]", "result": "Active"}, {"measurement": "OD", "setting": "Escherichia coli [8]", "result": 0.052}, {"measurement": "Activity", "setting": "Escherichia coli [9]", "result": "Active"}, {"measurement": "MIC", "setting": "Staphylococcus aureus [10]", "result": 26, "unit": "µM"}, {"measurement": "MIC", "setting": "Staphylococcus aureus [11]", "result": 7, "unit": "µM"}, {"measurement": "MIC", "setting": "Staphylococcus aureus [12]", "result": 13, "unit": "µM"}, {"measurement": "Activity", "setting": "Acinetobacter baumannii [13]", "result": "Active"}, {"measurement": "Activity", "setting": "Escherichia coli [14]", "result": "Active"}, {"measurement": "OD", "setting": "Escherichia coli [15]", "result": 0.117}, {"measurement": "OD", "setting": "Acinetobacter baumannii [16]", "result": 0.116}, {"measurement": "MIC", "setting": "Candida parapsilosis", "result": 422, "unit": "µM"}, {"measurement": "Activity", "setting": "Escherichia coli [17]", "result": "Dose-Dependent Effect"}, {"measurement": "OD", "setting": "Acinetobacter baumannii [18]", "result": 0.13}, {"measurement": "Activity", "setting": "Escherichia coli [19]", "result": "Active"}, {"measurement": "FIC", "setting": "Acinetobacter baumannii [20]", "result": 0.5}, {"measurement": "OD", "setting": "Acinetobacter baumannii [21]", "result": 0.051}, {"measurement": "MIC", "setting": "Pseudomonas aeruginosa [22]", "result": 26, "unit": "µM"}, {"measurement": "Activity", "setting": "Escherichia coli [23]", "result": "Active"}, {"measurement": "Activity", "setting": "Escherichia coli [24]", "result": "Active"}, {"measurement": "viability at 24 h", "setting": "[25]", "result": "> 95", "unit": "%"}, {"measurement": "Activity", "setting": "Escherichia coli [26]", "result": "Active"}, {"measurement": "Activity", "setting": "Cell membrane [27]", "result": "Active"}, {"measurement": "Activity", "setting": "Calf thymus DNA", "result": "Active"}, {"measurement": "MIC", "setting": "Candida tropicalis", "result": 53, "unit": "µM"}, {"measurement": "inhibition (INH)", "setting": "Escherichia coli [28]", "result": ">70.2", "unit": "%"}, {"measurement": "MIC", "setting": "Pseudomonas aeruginosa [29]", "result": 26, "unit": "µM"}, {"measurement": "Activity", "setting": "Acinetobacter baumannii [30]", "result": "Active"}, {"measurement": "Activity", "setting": "Escherichia coli [31]", "result": "Active"}, {"measurement": "OD", "setting": "Escherichia coli [32]", "result": 0.111}]}]}
